Where two headings read alike, the source gives them in different places.
Key:
Assay in all cases: Biochemical inhibition assay, fluorogenic substrate FSR-AMC
[1] = target: Trypsin (Homo sapiens, UniProt P07477)
Procedure: (§1) In a 384 well plate, 5 µL of eleven concentrations of inhibitor in 8% DMSO (serial dilution 2:1) and a blank were incubated with an equal amount of enzyme (KLK6, Thrombin, Trypsin or Factor Xa) diluted in 50 mM Tris pH 7.5, 150 mM NaCl, 1 mM EDTA, 0.05% Tween20 assay buffer for 30 minutes. […] Inhibition of the enzyme as a function of the inhibitor concentration was used to generate dose response curves, which allowed estimating IC50 values, according to the following equation in GraphPad Prism: y = ymin + (ymax−ymin)/(1+10^(((LogIC50−x)*HillSlope))) [formula]
(§2) Assay final concentrations: • KLK6: 5 nM • Trypsin: 0.88 ng/mL • Thrombin: 9.8·10^-5 NIH unit/mL • Factor Xa: 4 nM • FSR-AMC: 20 µM

[2] = target: Factor Xa (Homo sapiens, UniProt P00742)
Procedure: as §1, §2

[3] = target: Thrombin (Homo sapiens, UniProt P00734)
Procedure: as §1, §2

[4] = target: KLK6 (Homo sapiens, UniProt Q92876)
Procedure: as §1, §2

[5] = read-out: Trypsin IC50, Trypsin 0.88 ng/mL, 30 min incubation with inhibitor, FSR-AMC 20 µM, Tris pH 7.5
[6] = read-out: Factor Xa IC50, Factor Xa 4 nM, 30 min incubation with inhibitor, FSR-AMC 20 µM, Tris pH 7.5
[7] = read-out: Thrombin IC50, Thrombin 9.8·10^-5 NIH unit/mL, 30 min incubation with inhibitor, FSR-AMC 20 µM, Tris pH 7.5
[8] = read-out: KLK6 IC50, KLK6 5 nM (produced in insect cells), 30 min incubation with inhibitor, FSR-AMC 20 µM, Tris pH 7.5

Chain of Factor Xa (P00742 235-488 limits assumed): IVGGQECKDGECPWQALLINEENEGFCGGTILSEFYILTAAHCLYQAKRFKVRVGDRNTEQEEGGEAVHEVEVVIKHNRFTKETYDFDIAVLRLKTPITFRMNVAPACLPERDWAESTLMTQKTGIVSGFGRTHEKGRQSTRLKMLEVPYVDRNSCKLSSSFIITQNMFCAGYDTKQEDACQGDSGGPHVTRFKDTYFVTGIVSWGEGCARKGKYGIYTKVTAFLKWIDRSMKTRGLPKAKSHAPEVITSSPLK
Chain of Factor Xa (P00742 41-179 partner limits assumed): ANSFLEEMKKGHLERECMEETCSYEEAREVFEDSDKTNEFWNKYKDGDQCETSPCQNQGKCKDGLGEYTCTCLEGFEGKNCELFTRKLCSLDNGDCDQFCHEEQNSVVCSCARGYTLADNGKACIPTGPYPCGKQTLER

Compound	IC50 [1, 5]	IC50 [2, 6]	IC50 [3, 7]	IC50 [4, 8]	IC50 [1]	IC50 [2]	IC50 [3]	IC50 [4]
Cc1cc2ccccc2n1CC(=O)OCC(=O)Nc1ccc(N2CCOCC2)cc1 [compound 35]	> 50 µM	> 50 µM	> 50 µM	1.41 µM	–	–	–	–
Cc1nn(-c2ccccc2)c(C)c1NC(=O)COC(=O)Cc1ccccc1C(F)(F)F [compound 63]	> 200 µM	> 200 µM	> 200 µM	2.35 µM	–	–	–	–
Cc1nn(-c2ccccc2)c(C)c1NC(=O)COC(=O)Cc1ccccc1I [compound 51]	> 200 µM	> 200 µM	> 200 µM	0.261 µM	–	–	–	–
Cc1nn(-c2ccc([N+](=O)[O-])cc2)c(C)c1NC(=O)COC(=O)Cn1c(C)cc2ccccc21 [compound 10, 2-((3,5-dimethyl-1-(4-nitrophenyl)-1H-pyrazol-4-yl)amino)-2-oxoethyl 2-(2-methyl-1H-indol-1-yl)acetate]	–	–	–	–	> 200 µM	> 200 µM	> 200 µM	0.994 µM
Cc1nn(-c2ccccc2)c(C)c1NC(=O)COC(=O)Cc1ccsc1Cl [compound 66]	> 200 µM	> 200 µM	> 200 µM	7.4 µM	–	–	–	–
Cc1nn(-c2ccccc2)c(C)c1NC(=O)COC(=O)Cc1ccccn1 [compound 58]	> 200 µM	> 200 µM	> 200 µM	8.86 µM	–	–	–	–
Cc1nn(-c2ccccc2)c(C)c1NC(=O)COC(=O)Cc1c(C)[nH]c2ccccc12 [compound 38]	27.4 µM	> 50 µM	> 50 µM	–	–	–	–	–
Cc1[nH]c2ccccc2c1CC(=O)OCC(=O)Nc1ccc(N2CCOCC2)cc1 [compound 76]	> 200 µM	> 200 µM	> 200 µM	–	–	–	–	–
Cc1nn(-c2ccccc2)c(C)c1NC(=O)C1(OC(=O)Cn2c(C)cc3ccccc32)CC1 [compound 40]	> 50 µM	> 50 µM	> 50 µM	–	–	–	–	–
Cc1nn(-c2ccccc2)c(C)c1NC(=O)COC(=O)Cc1c[nH]c2ccccc12 [compound 12, 2-((3,5-dimethyl-1-phenyl-1H-pyrazol-4-yl)amino)-2-oxoethyl 2-(1H-indol-3-yl)acetate]	–	–	–	–	139 µM	135 µM	> 200 µM	–
Cc1nn(-c2ccccc2)c(C)c1NC(=O)COC(=O)Cn1ccc2ccccc21 [compound 11, 2-((3,5-dimethyl-1-phenyl-1H-pyrazol-4-yl)amino)-2-oxoethyl 2-(1H-indol-1-yl)acetate]	–	–	–	–	> 200 µM	> 200 µM	> 200 µM	14.5 µM
Cc1nn(-c2ccccc2)c(C)c1NC(=O)COC(=O)Cc1ccco1 [compound 68]	> 200 µM	> 200 µM	> 200 µM	46 µM	–	–	–	–
Cc1nn(-c2ccccc2)c(C)c1NC(=O)COC(=O)Cc1ccc(C#N)cc1 [compound 46]	> 50 µM	–	> 50 µM	29.4 µM	–	–	–	–
Cc1[nH]c2ccccc2c1CC(=O)OCC(=O)NC(C)(C)C [compound 67]	> 200 µM	> 200 µM	> 200 µM	166 µM	–	–	–	–
Cc1cc2ccccc2n1CC(=O)OCC(=O)Nc1ccccc1 [compound 24]	> 50 µM	> 50 µM	> 50 µM	9.96 µM	–	–	–	–
COc1ccccc1NC(=O)COC(=O)Cc1c(C)[nH]c2ccccc12 [compound 77]	28.7 µM	21.1 µM	> 200 µM	1.86 µM	–	–	–	–
Cc1[nH]c2ccccc2c1CC(=O)OCC(=O)Nc1ccccc1Cl [compound 73]	114 µM	34.7 µM	> 200 µM	1.46 µM	–	–	–	–
COc1ccc(CC(=O)OCC(=O)Nc2c(C)nn(-c3ccccc3)c2C)cc1 [compound 52]	> 200 µM	> 200 µM	> 200 µM	32.8 µM	–	–	–	–

Compound	IC50 [1, 5]	IC50 [2, 6]	IC50 [3, 7]	IC50 [4, 8]	IC50 [1]	IC50 [2]	IC50 [3]	IC50 [4]
Cc1ccc(NC(=O)COC(=O)Cc2c(C)[nH]c3ccccc23)cc1 [compound 74]	> 200 µM	> 200 µM	> 200 µM	4.57 µM	–	–	–	–
Cc1nn(-c2ccccc2N)c(C)c1NC(=O)COC(=O)Cn1c(C)cc2ccccc21 [compound 23]	> 200 µM	> 200 µM	> 200 µM	0.375 µM	–	–	–	–
Cc1nn(-c2ccccc2)c(C)c1NC(=O)COC(=O)Cc1ccccc1Cl [compound 45]	> 50 µM	–	> 50 µM	1.36 µM	–	–	–	–
Cc1ccc(-n2nc(C)c(NC(=O)COC(=O)Cc3c[nH]c4ccccc34)c2C)cc1 [compound 13, 2-((3,5-dimethyl-1-(p-tolyl)-1H-pyrazol-4-yl)amino)-2-oxoethyl 2-(1H-indol-3-yl)acetate]	–	–	–	–	133 µM	162 µM	> 200 µM	6.47 µM
COc1ccc(NC(=O)COC(=O)Cc2c(C)[nH]c3ccccc23)cc1 [compound 80]	> 200 µM	> 200 µM	> 200 µM	6.55 µM	–	–	–	–
Cc1[nH]c2ccccc2c1CC(=O)OCC(=O)Nc1cccc(C(N)=O)c1 [compound 84]	82.1 µM	67.5 µM	90.6 µM	3.27 µM	–	–	–	–
Cc1nn(-c2ccccc2)c(C)c1NC(=O)COC(=O)Cc1cn(C)c2ccccc12 [compound 18]	149 µM	50.5 µM	> 200 µM	11.6 µM	–	–	–	–
Cc1ccccc1NC(=O)COC(=O)Cn1c(C)cc2ccccc21 [compound 26]	> 50 µM	> 50 µM	> 50 µM	–	–	–	–	–
Cc1nn(-c2ccccc2)c(C)c1NC(=O)COC(=O)Cc1cccc2ccccc12 [compound 42]	> 50 µM	–	> 50 µM	–	–	–	–	–
Cc1nn(-c2ccccc2)c(C)c1NC(=O)COC(=O)Cn1c(C)cc2cc(Cl)ccc21 [compound 30]	> 50 µM	> 50 µM	> 50 µM	–	–	–	–	–
Cc1nn(-c2ccccc2)c(C)c1NC(=O)COC(=O)C(C)c1c(C)[nH]c2ccccc12 (centres unmarked) [compound 81]	> 200 µM	> 200 µM	> 200 µM	–	–	–	–	–
Cc1nn(-c2ccccc2)c(C)c1NC(=O)COC(=O)CCc1c(C)[nH]c2ccccc12 [compound 87]	> 200 µM	> 200 µM	> 200 µM	–	–	–	–	–
Cc1nn(-c2ccccc2)c(C)c1NC(=O)COC(=O)Cc1ccsc1 [compound 70]	> 200 µM	> 200 µM	> 200 µM	–	–	–	–	–
Cc1[nH]c2ccccc2c1CC(=O)OCC(=O)Nc1cncnc1 [compound 86]	> 200 µM	148 µM	66.1 µM	–	–	–	–	–
Cc1nn(-c2ccccc2)c(C)c1NC(=O)COC(=O)Cc1ccc(N)cc1 [compound 44]	> 50 µM	–	> 50 µM	12.2 µM	–	–	–	–
Cc1nn(-c2ccccc2)c(C)c1NC(=O)COC(=O)Cn1c(C)cc2ccccc21 [compound 1, 2-((3,5-dimethyl-1-phenyl-1H-pyrazol-4-yl)amino)-2-oxoethyl 2-(2-methyl-H-indol-1-yl)acetate]	–	–	–	–	39.4 µM	> 200 µM	> 200 µM	–
Cc1nn(-c2ccccc2)c(C)c1NC(=O)COC(=O)Cc1ccccc1 [compound 43]	> 50 µM	–	> 50 µM	–	–	–	–	–
Cc1nn(-c2ccccc2)c(C)c1NC(=O)COC(=O)Cc1ccccc1Br [compound 48]	> 200 µM	> 200 µM	> 200 µM	–	–	–	–	–
